Measured values from article PMC10045593, “Ubiquitin-Specific Proteases as Potential Therapeutic Targets in Bladder Cancer—In Vitro Evaluation of Degrasyn and PR-619 Activity Using Human and Canine Models” (Biomedicines, 2023).
Where “and” joins values, the source holds several entries; their conditions need not be identical. Equal entries are not always repeated.

What was measured:
RDSVS-TCC1 cell line [1] = experiment: Ki-67 flow cytometry proliferation assay; type: cell-based, canine; conditions: RDSVS-TCC1, 24 h, p < 0.05
Procedure: (§1) For the cell proliferation assay, cells were plated in 100 mm cell culture plates. When the cultures reached 60% confluence, the media were discarded from the wells and replaced with culture media only or media with added compounds (Degrasyn, PR-619) with increasing concentrations for 24 h. The growth medium was then removed from the wells, the cells were rinsed twice with PBS, and 0.25% trypsin-EDTA was added to detach the cells. After 5 min of incubation at 37 °C and 5% CO2, the fresh culture medium was added to inactivate the trypsin, and cells were collected in flow cytometry tubes. Cells were then labeled using the Ki-67 Proliferation Kit BD Pharmingen(BD Biosciences) according to the manufacturer’s instructions and analyzed using a flow cytometer (Cytoflex, Beckman Coulter). Unstained control cells were used for gating to determine the percentage of the proliferation of the Ki-67-positive cells in the samples. Percentages of proliferating (Ki-67 positive) cells were used to calculate the means ± SD for each cell line. The presented results were obtained from three independent experiments.

K9TCC-PU-NK cell line [2] = experiment: Ki-67 flow cytometry proliferation assay; type: cell-based, canine; conditions: 24 h, p < 0.05
Procedure: as §1

RDSVS-TCC1 cell line [3] = experiment: Caspase 3/7 activation flow cytometry assay; type: cell-based, canine; conditions: RDSVS-TCC1, 24 h
Procedure: (§2) Subsequently, to assess caspases 3/7 activation, the cells were incubated with medium alone or with increasing concentrations of compounds (Degrasyn, PR-619) in conditions similar to the previous test. Following cell collection, the cells were twice PBS-washed and stained in accordance with the manufacturer’s instructions. For active caspase 3/7 detection, CellEventCaspase-3/7 Green Detection Reagent Solution was added to the samples. The cells were then suspended 1 more time in the wash buffer after being washed twice. For flow cytometric analysis, a flow cytometers (FACS Calibur, Becton Dickinson, Biosciences, San Jose, CA, USA; CytoFlex, Beckman Coulter, CA, USA) were used, and CellQuest 3.lf (Becton Dickinson, San Jose, CA, USA) and CytExpert 2.4 (Beckman Coulter, CA, USA) software were used for data analysis. The presented results were obtained from three independent experiments.

K9TCC-PU-NK cell line [4] = experiment: Caspase 3/7 activation flow cytometry assay; type: cell-based, canine; conditions: 24 h
Procedure: as §2

[5] = tested on: Bcl-xl in all cell lines (SV-HUC-1, T24, K9TCC-PU-NK, RDSVS-TCC1); experiment: Western blot for Bcl-xl expression; type: cell-based, human and canine; conditions: 24 h
Procedure: Western blot was performed to assess the expression of USP5, USP9X, and USP14 in analyzed cell lines. After 24 h of incubation with increasing concentrations of Degrasyn and PR-619, the expression of proteins involved in apoptosis (Bcl-2 and Bcl-xl) and a marker of DNA damage (γH2A.X) was also evaluated. Briefly, cells were rinsed with cold phosphate-buffered saline (PBS), suspended in lysis buffer (50 mM Tris-HCl pH 7.5, 100 mM NaCl, 1% NP-40, protease inhibitors set), and incubated for 20 min on ice. Subsequently, after centrifuging at 10,000 rpm at 4 °C for 12 min, sodium dodecyl sulfate (SDS) sample buffer was added to […]. After boiling for 5 min at 95 °C, the samples were subjected to SDS-polyacrylamide gel electrophoresis on 8–15% gel. For USP5, USP9X, USP14, γH2A.X, Bcl-2, and Bcl-xl expression analysis, transfers onto nitrocellulose membranes were performed using a Semidry Transfer Cell or wet transfer method (Bio-Rad, Hercules, CA, USA). After transfer, the membranes were blocked with 1% casein in TBS (or 3% BSA for γH2Ax) at room temperature for 1 h. […]

SV-HUC-1 cell line [6] = experiment: Ki-67 flow cytometry proliferation assay; type: cell-based, human; conditions: SV-HUC-1, 24 h, p < 0.05
Procedure: as §1

T24 cell line [7] = experiment: Ki-67 flow cytometry proliferation assay; type: cell-based, human; conditions: T24, 24 h, p < 0.05
Procedure: as §1

SV-HUC-1 cell line [8] = experiment: MTT cell proliferation assay; type: cell-based, human; conditions: for cells killed at the highest concentration: SV-HUC-1, MTT, highest concentration used (20 μM)
Procedure: (§3) Cell proliferation was determined using the 3-(4,5-dimethylthiazol-2-yl)-2,5-diphenyltetrazolium bromide (MTT) assay (Sigma-Aldrich, Steinheim, Germany). Cells were plated at a density of 1 × 10^5 cells per mL in 96-well plates (Thermo Fisher Scientific, Roskilde, Denmark) and allowed to attach overnight. Subsequently, Degrasyn and PR-619 were added in increasing concentrations (0.6, 1.25, 2.5, 5, 10, and 20 μM). After incubation for 24, 48, and 72 h with either the compounds or in the medium alone, 20 μL of MTT solution (5 mg/mL) was added to each well. After an additional 4 h, 80 μL of the lysis buffer (225 mL DMF, 67.5 g SDS, and 275 mL distilled water) was added to each well. After dissolving the content, the absorbance was measured at a […] of 570 nm using a spectrophotometric microplate reader Spark (Tecan). The values were obtained from 3 independent experiments (different plates, different days). Based on the results, the concentration that inhibited 50% of the cell proliferation (IC50) was calculated for all incubation intervals.

T24 cell line [9] = experiment: MTT cell proliferation assay; type: cell-based, human; conditions: for cells killed at the highest concentration: T24, MTT, highest concentration used (20 μM)
Procedure: as §3

[10] = only highest concentration 5 µM
[11] = 5 μM (highest concentration of Degrasyn)
[12] = only highest concentration 10 µM
[13] = 10 μM (highest concentration of PR-619)

CCC[C@H](NC(=O)/C(C#N)=C/c1cccc(Br)n1)c1ccccc1 [Degrasyn]
percentage of Ki-67 positive cells (as compared to control) (RDSVS-TCC1 cell line [1]; [10]): significantly decreased | percentage of Ki-67 positive cells (as compared to control) (K9TCC-PU-NK cell line [2]; [10]): significantly decreased | percentage of cells with active caspase 3/7 (RDSVS-TCC1 cell line [3]; 1.25 μM): 5.9% | percentage of cells with active caspase 3/7 (RDSVS-TCC1 cell line [3]; 2.5 μM): 11.7% | percentage of cells with active caspase 3/7 (RDSVS-TCC1 cell line [3]; [11]): 22.5 ± 4.3% and 22.5% | percentage of cells with active caspase 3/7 (K9TCC-PU-NK cell line [4]; 1.25 μM): 5.4% | percentage of cells with active caspase 3/7 (K9TCC-PU-NK cell line [4]; 2.5 μM): 7.1% | percentage of cells with active caspase 3/7 (K9TCC-PU-NK cell line [4]; [11]): 11.9 ± 1.8% and 11.9% | Bcl-xl expression ([5]; all cell lines, 5 μM): slightly reduced | percentage of Ki-67 positive cells (as compared to control) (SV-HUC-1 cell line [6]; [10]): significantly decreased | percentage of Ki-67 positive cells (as compared to the control) (T24 cell line [7]; 2.5–5 µM): significantly decreased | IC50 (SV-HUC-1 cell line [8]; SV-HUC-1, 24 h exposure, MTT, read-out: IC50 (concentration that inhibited 50% of the cell proliferation)): 2.33 µM | cells killed at the highest concentration (SV-HUC-1 cell line [8]): ~100% | IC50 (T24 cell line [9]; T24, 24 h exposure, MTT, read-out: IC50 (concentration that inhibited 50% of the cell proliferation)): 3.07 µM | cells killed at the highest concentration (T24 cell line [9]): ~100%

N#CSc1cc(SC#N)c(N)nc1N [PR-619]
percentage of Ki-67 positive cells (as compared to control) (RDSVS-TCC1 cell line [1]; [12]): significantly decreased | percentage of Ki-67 positive cells (as compared to control) (K9TCC-PU-NK cell line [2]; [12]): significantly decreased | percentage of cells with active caspase 3/7 (RDSVS-TCC1 cell line [3]; 2.5 μM): 6.1% | percentage of cells with active caspase 3/7 (RDSVS-TCC1 cell line [3]; [11]): 12.9% | percentage of cells with active caspase 3/7 (RDSVS-TCC1 cell line [3]; [13]): 16.2 ± 7.4% and 16.2% | percentage of cells with active caspase 3/7 (K9TCC-PU-NK cell line [4]; 2.5 μM): 6.4% | percentage of cells with active caspase 3/7 (K9TCC-PU-NK cell line [4]; [11]): 9.9% | percentage of cells with active caspase 3/7 (K9TCC-PU-NK cell line [4]; [13]): 13.3 ± 3.3% and 13.2% | Bcl-xl expression ([5]; analyzed cell lines, increasing concentrations): No clearly visible changes | percentage of Ki-67 positive cells (as compared to control) (SV-HUC-1 cell line [6]; [12]): significantly decreased | percentage of Ki-67 positive cells (as compared to the control) (T24 cell line [7]; 5–10 µM): significantly decreased | cells killed at the highest concentration (SV-HUC-1 cell line [8]): ~100% | cells killed at the highest concentration (T24 cell line [9]): ~100%
